# Test results published in patent US7205299B2, “Indole derivatives having an apoptosis-inducing effect” (Zentaris GmbH, priority 2003, dated 2007).
# Where “and” joins values, the source holds several entries; their conditions need not be identical. Equal values may be shown once.
# What was measured:
# [1] = tested on: resistant line LT12/mdr; test: XTT proliferation assay, LT12/mdr; type: cell-based; conditions: Rattus norvegicus, LT12mdr
# Source text: (§1) For further characterization, substances 1, 2, 4 and 11 were investigated with regard to their effect on mulitdrug-resistance cell lines as compared with that on nonresistant wild-type cell lines.
# (§2) The cell lines which were investigated are the murine cell line L1210, the acute myeloid leukemia cell line LT12 and the resistant lines L1210/mdr and LT12/mdr. The murine cell line P388 (methylcholanthrene-induced lymphoid neoplasm) and doxorubicin-resistant P388 were also included as test systems.
# (§3) The test results are summarized in Table 2 below: • XTT proliferation assay, EC50 in μg/ml
# [2] = tested on: resistant line L1210/mdr (L1210VCR); test: XTT proliferation assay, L1210VCR; type: cell-based, murine; conditions: Mus musculus
# Source text: as §1, §2, §3
# [3] = tested on: doxorubicin-resistant P388; test: XTT proliferation assay, P388ADR; type: cell-based, murine; conditions: Mus musculus
# Source text: as §1, §2, §3
# [4] = tested on: murine cell line P388; test: XTT proliferation assay, P388; type: cell-based; conditions: Mus musculus
# Source text: as §1, §2, §3
# [5] = tested on: acute myeloid leukemia cell line LT12; test: XTT proliferation assay, LT12; type: cell-based; conditions: Rattus norvegicus
# Source text: as §1, §2, §3
# [6] = tested on: murine cell line L1210; test: XTT proliferation assay, L1210; type: cell-based; conditions: Mus musculus
# Source text: as §1, §2, §3
# [7] = target: bovine tubulin (Bos taurus, UniProt P81947+Q6B856); test: Inhibition of tubulin polymerization; type: biochemical; conditions: summary of Table 3
# Sequence of bovine tubulin (P81947 whole entry): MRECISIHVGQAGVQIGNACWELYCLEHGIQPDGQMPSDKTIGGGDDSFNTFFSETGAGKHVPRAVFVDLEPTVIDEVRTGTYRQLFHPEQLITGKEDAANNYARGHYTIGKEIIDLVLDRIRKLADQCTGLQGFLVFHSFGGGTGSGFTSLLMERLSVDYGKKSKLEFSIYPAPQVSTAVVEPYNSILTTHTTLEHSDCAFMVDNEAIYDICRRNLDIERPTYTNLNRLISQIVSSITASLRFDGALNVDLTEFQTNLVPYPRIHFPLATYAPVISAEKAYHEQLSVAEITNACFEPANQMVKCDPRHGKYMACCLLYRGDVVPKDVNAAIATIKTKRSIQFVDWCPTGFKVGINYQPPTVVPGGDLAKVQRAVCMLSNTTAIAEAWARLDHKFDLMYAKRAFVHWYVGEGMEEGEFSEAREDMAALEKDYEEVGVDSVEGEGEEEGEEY
# Sequence of bovine tubulin (Q6B856 whole entry): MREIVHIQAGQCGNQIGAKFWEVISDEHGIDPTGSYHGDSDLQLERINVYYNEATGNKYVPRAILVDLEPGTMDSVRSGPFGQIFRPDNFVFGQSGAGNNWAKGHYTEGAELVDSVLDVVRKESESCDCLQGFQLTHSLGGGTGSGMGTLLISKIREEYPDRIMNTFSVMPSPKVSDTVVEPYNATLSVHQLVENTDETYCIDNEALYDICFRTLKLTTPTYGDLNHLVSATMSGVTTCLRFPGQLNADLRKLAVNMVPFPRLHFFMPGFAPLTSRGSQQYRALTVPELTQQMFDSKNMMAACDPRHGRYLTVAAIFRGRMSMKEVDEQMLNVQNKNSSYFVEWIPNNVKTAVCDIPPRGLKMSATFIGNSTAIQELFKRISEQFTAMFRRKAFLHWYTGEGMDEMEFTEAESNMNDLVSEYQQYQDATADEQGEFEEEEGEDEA
# Experimental: Substances 1, 4, 9, 11, 12, 13 and 15 were tested for their ability to inhibit the polymerization of bovine tubulin in an in-vitro test (D. M. Bollag et al. Cancer Res. 1995, 55, 2325–2333). This test uses-tubulin which has been purified by cycles of polymerization and depolymerization and which is caused to polymerize by adding GTP and heating it. Table 3 gives the EC50 values causing inhibition of the polymerization of tubulin containing 30% associated proteins (MPAs).
# [8] = Saturation solubility in water; type: physicochemical; conditions: thermodynamic from solid, maximum of 1% DMSO, HPLC-UV
# Experimental: A maximum of 1% DMSO was added for the purpose of solubilizing the substances and improving the wetting of the samples. An HPLC-UV method was used for checking the content.
# [9] = tested on: U-937 cell line; test: CDDplus nucleosome ELISA test (apoptosis); type: cell-based; conditions: U-937, 1 nM–10 μM, 24 h of treatment
# Experimental: Nuclear fragmentation is a late consequence of apoptotic processes. The changes which can be observed in this connection can be attributed to DNA strands being cleaved by endonucleases and the fragmentation into nucleosome particles which results therefrom.
# For this, the effects of compounds 1 and 2 on the U-937 cell line were investigated at different concentrations (1 nM–10 μM; 24 h of treatment). (See FIG. 5 and FIG. 6).
# [10] = target: human topoisomerase II (Homo sapiens, UniProt P11388); test: pRYG relaxation assay for testing topoisomerase II activity; type: biochemical; conditions: compound 1 at 100, 31.6 and 10 μM; reference compounds 316 and 100 μM
# Sequence of human topoisomerase II (P11388 whole entry): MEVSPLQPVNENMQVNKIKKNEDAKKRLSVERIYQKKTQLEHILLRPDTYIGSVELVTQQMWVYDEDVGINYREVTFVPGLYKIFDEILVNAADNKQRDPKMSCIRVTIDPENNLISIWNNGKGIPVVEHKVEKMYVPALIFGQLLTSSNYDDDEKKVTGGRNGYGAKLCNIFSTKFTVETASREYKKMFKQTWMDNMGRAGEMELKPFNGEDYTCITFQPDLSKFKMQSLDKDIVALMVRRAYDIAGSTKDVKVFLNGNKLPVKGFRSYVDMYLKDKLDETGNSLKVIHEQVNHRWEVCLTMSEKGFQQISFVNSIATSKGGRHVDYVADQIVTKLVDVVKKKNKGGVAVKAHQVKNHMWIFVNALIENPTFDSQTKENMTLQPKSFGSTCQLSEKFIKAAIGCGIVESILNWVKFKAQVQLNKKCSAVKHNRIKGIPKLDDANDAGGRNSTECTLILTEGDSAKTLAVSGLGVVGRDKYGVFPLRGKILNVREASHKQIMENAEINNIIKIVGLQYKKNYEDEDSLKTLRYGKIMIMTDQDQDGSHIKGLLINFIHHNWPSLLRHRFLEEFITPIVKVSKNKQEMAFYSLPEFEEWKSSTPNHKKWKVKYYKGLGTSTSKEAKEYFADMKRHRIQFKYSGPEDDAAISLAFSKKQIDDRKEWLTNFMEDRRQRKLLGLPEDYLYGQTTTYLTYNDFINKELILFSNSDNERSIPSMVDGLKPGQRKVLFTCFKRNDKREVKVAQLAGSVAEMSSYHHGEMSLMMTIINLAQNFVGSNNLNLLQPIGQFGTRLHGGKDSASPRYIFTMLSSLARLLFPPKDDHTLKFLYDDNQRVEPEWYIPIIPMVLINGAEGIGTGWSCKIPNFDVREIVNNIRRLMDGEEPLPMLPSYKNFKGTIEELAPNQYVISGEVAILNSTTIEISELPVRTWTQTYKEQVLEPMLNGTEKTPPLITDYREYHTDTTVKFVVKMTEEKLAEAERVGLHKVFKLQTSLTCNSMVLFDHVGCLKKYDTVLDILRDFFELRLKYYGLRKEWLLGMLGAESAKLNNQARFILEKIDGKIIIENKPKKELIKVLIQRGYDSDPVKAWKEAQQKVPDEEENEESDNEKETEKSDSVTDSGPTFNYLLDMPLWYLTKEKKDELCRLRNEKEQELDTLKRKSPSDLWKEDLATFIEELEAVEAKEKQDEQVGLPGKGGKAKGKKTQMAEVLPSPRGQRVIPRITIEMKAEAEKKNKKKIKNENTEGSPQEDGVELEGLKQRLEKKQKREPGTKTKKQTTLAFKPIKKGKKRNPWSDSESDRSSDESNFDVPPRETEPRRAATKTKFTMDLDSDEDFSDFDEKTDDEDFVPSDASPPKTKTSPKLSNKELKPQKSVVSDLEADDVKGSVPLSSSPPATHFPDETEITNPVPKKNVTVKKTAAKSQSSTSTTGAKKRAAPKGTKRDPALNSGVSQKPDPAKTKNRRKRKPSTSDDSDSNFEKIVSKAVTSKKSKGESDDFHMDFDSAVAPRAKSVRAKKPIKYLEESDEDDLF
# Experimental: In the assay, the compound 1 according to the invention was tested at three different concentrations (100, 31.6 and 10 μM). The reference compounds m-amsacrine, paclitaxel (Taxol) and vincristine were used, at concentrations of 316 and 100 μM, for comparison.
# 2 μL of 10× assay buffer, 0.5 μL of pRYG DNA (125 ng), 0.5 μL of human topoisomerase II (1 unit) and 16 μL of H2O are added by pipette to 1 μL of initially introduced test substance (20 times concentrated in 100% DMSO) and the reagents are mixed. The reaction assay samples are placed in a heating block which has been preheated to 37° C. and incubated at 37° C. for 30 min. The incubation is stopped after adding 4 μL of 5× Stop buffer. After that, 10 μL of the assay sample are loaded onto a 1.2% agarose gel containing 0.25 μg of ethidium bromide/mL and separated at 100 V for 2.5 h. Finally, the gel is photographed under UV excitation (see FIG. 3). The inhibition of pRYG relaxation is quantified using the GelPro® Analyzer Software (see FIG. 4).
# [11] = target: human DNA topoisomerase II (Homo sapiens, UniProt P11388); test: kDNA assay for testing topoisomerase II activity; type: biochemical; conditions: compound 1 at 100, 31.6 and 10 μM; reference compounds 100 μM
# Sequence of human DNA topoisomerase II (P11388 whole entry): as above
# Experimental: In this assay, which was described by P. Arimondo (Anti-Cancer Drug Design 2000, 15(6), 413–421), kDNA is treated with human DNA topoisomerase II in the absence or presence of the test compounds. In the assay, compound 1 according to the invention was tested at three different concentrations (100, 31.6 and 10 μM). A positive control and the reference compounds m-amsacrine (m-amsa), paclitaxel (Taxol) and vincristine, with the concentration in each case being 100 μM, were used for comparison.
# 2 μL of 10× assay buffer, 1 μL of kDNA (200 ng), 0.5 μL of human topoisomerase II (1 unit) and 15.5 μL of H2O are added by pipette to 1 μL of initially introduced test substance (20 times concentrated in 100% DMSO) and the reagents are mixed.
# The reaction assay samples are placed in a heating block which has been preheated to 37° C. and incubated at 37° C. for 10 min. The incubation is stopped after adding 4 μL of 5× Stop buffer and the substance is subsequently extracted with CIA. After that, 20 μL of the supernatant are loaded onto a 1% agarose gel containing 0.25 μg of ethidium bromide/mL and separated at 100 V for 1 h. Finally, the gel is photographed under UV excitation (see FIG. 1). The inhibition of the decatenation of kDNA is quantified using the GelPro® Analyzer Software (see FIG. 2).
# [12] = tested on: mammary gland, MAXF857; test: Human xenograft model, mammary gland MAXF857; type: in vivo
# Source text: The in-vivo activity and tolerability of compound 2 according to the invention, as compared with those of substance 10, were examined in another human xenograft model (mammary gland, MAXF857).
# [13] = tested on: melanoma, MEXF-462; test: Human xenograft model, melanoma MEXF-462; type: in vivo; conditions: for tolerability (in words): MEXF462 xenograft, p.o.
# Source text: The in-vivo activity and tolerability of compound 2 according to the invention, as compared with those of substances 10 and 14, were examined in a human xenograft model (melanoma, MEXF-462).
# [14] = tested on: KB/HeLa cells; test: Cell cycle analysis (G2/M arrest); type: cell-based; conditions: Homo sapiens, 24 hours, 37° C., read-out: EC50 (50% of cells in G2/M)
# Experimental: For the cell cycle analysis, KB/HeLa cells were treated with different concentrations of the test substances (0.1–1000 nM) at 37° C. for 24 hours.
# The percentage of cells arrested in the G2/M phase of the cell cycle after having been treated with reference substances or selected test substances is shown in Table 4 below. The results were analyzed using special analytical software (ModFit™).
SMILES,EC50 [1],EC50 [2],EC50 [3],EC50 [4],EC50 [5],EC50 [6],inhibitory effect on tubulin polymerization (in words) [7],solubility [8],other results
"COc1cccc2c1C(=O)c1c(O)c3c(c(O)c1C2=O)C[C@@](O)(C(=O)CO)C[C@@H]3O[C@H]1C[C@H](N)[C@H](O)[C@H](C)O1 [Doxorubicin, doxorubicin]",> 3.16 µg/mL,> 3.16 µg/mL,> 3.16 µg/mL,0.204 µg/mL,0.029 µg/mL,0.269 µg/mL,,,
"O=C(Nc1ccc2[nH]ncc2c1)C(=O)c1cn(Cc2ccc(Cl)cc2)c2ccccc12 [Compound 4, 2-[1-(4-chlorobenzyl)-1H-indol-3-yl]-N-(1H-indazol-5-yl)-2-oxoacetamide]",,,,,,,very potent inhibitory effect,,melting point: 203 °C
"O=C(Nc1cnc2nccnc2c1)C(=O)c1cn(Cc2ccc(Cl)cc2)c2ccccc12 [Compound 1, 2-[1-(4-chlorobenzyl)-1H-indol-3-yl]-2-oxo-N-pyrido[2,3-b]pyrazin-7-ylacetamide]",,,,,,,very potent inhibitory effect,25 µg/mL,"nucleosomes in the cell culture supernatant [9]: not possible to demonstrate any significant increase; nucleosomes in the cell lysate [9]: concentration-dependent increase of nucleosomes in the cell lysate; inhibition of topoisomerase II, pRYG DNA relaxation [10]: significantly inhibit topoisomerase II; inhibition of topoisomerase II, kDNA decatenation [11]: significantly inhibit topoisomerase II"
"O=C(Nc1ccc2ncccc2c1)C(=O)c1cn(Cc2ccc(Cl)cc2)c2ccccc12 [Compound 10, 2-[1-(4-chlorobenzyl)-1H-indol-3-yl]-2-oxo-N-quinolin-6-ylacetamide]",,,,,,,,0.038 µg/mL,"Deaths n (dead animals / total number) ([12]; MAXF857, 40 mg/kg p.o.): 2/6 and 2/6 mice; tolerability (in words) ([12]; MAXF857 xenograft, p.o.): substantially less well tolerated than 2; Deaths n (dead animals / total number) ([13]; MEXF462, 55 mg/kg p.o.): 2/6 mice; Deaths n (dead animals / total number) ([13]; MEXF462, 70 mg/kg p.o.): 5/6 mice; tolerability (in words) [13]: less well tolerated"
"Cc1ccc2cc(NC(=O)C(=O)c3cn(Cc4ccc(Cl)cc4)c4ccccc34)ccc2n1 [Compound 9, 2-[1-(4-chlorobenzyl)-1H-indol-3-yl]-N-(2-methylquinolin-6-yl)-2-oxoacetamide]",,,,,,,very potent inhibitory effect,,
"O=C(Nc1ccncc1)C(=O)c1cn(Cc2ccc(Cl)cc2)c2ccccc12 [Compound 14, 2-[1-(4-chlorobenzyl)-1H-indol-3-yl]-2-oxo-N-pyridin-4-ylacetamide]",,,,,,,,0.35 µg/mL,"Deaths n (dead animals / total number) ([13]; MEXF462, 16 mg/kg p.o.): 3/5 mice; Deaths n (dead animals / total number) ([13]; MEXF462, 32 mg/kg p.o.): 3/5 mice; tolerability (in words) [13]: less well tolerated"
"Cc1ccc2cccc(NC(=O)C(=O)c3cn(Cc4ccc(F)cc4)c4ccccc34)c2n1 [Compound 15, 2-[1-(4-fluorobenzyl)-1H-indol-3-yl]-N-(2-methylquinolin-8-yl)-2-oxoacetamide]",,,,,,,do not exert any effect,,melting point: 200 to 202 °C
"O=C(Nc1cccc2cccnc12)C(=O)c1cn(Cc2ccc(Cl)cc2)c2ccccc12 [Compound 12, 2-[1-(4-chlorobenzyl)-1H-indol-3-yl]-2-oxo-N-quinolin-8-ylacetamide]",,,,,,,do not exert any effect,,melting point: 178 °C
"CC(=O)N(C(=O)C(=O)c1cn(Cc2ccc(Cl)cc2)c2ccccc12)c1ccc2ncccc2c1 [Compound 2, N-{2-[1-(4-chlorobenzyl)-1H-indol-3-yl]-2-oxoacetyl}-N-quinolin-6-ylacetamide]",,,,,,,,28.5 µg/mL,"Deaths n (dead animals / total number) ([12]; MAXF857, 80 mg/kg p.o.): 0/6 mice; Optimum T/C % (day) ([12]; MAXF857, 80 mg/kg p.o., day 10): 9.6% (10); Deaths n (dead animals / total number) ([13]; MEXF462, 80 mg/kg p.o.): 0/6 mice; remission of the tumors ([13]; MEXF462, 80 mg/kg p.o., 6 animals): complete remission of the tumors in the treated animals; Optimum T/C % (day) ([13]; MEXF462, 80 mg/kg p.o., day 18): 0.0% (18); tolerability (in words) [13]: very well tolerated (no deaths); nucleosomes in the cell culture supernatant [9]: not possible to demonstrate any significant increase; nucleosomes in the cell lysate [9]: concentration-dependent increase of nucleosomes in the cell lysate"
"COc1cc([C@@H]2c3cc4c(cc3[C@@H](O[C@@H]3O[C@@H]5CO[C@@H](C)O[C@H]5[C@H](O)[C@H]3O)[C@H]3COC(=O)[C@H]23)OCO4)cc(OC)c1O [Etoposide, etoposide]",> 3.6 µg/mL,> 3.16 µg/mL,> 3.16 µg/mL,0.202 µg/mL,0.094 µg/mL,0.269 µg/mL,,,
"O=C1c2c(O)ccc(O)c2C(=O)c2c(NCCNCCO)ccc(NCCNCCO)c21 [Mitoxantrone, mitoxantrone]",3.1 µg/mL,2.1 µg/mL,0.608 µg/mL,0.053 µg/mL,0.006 µg/mL,0.09 µg/mL,,,EC50 [14]: 25.3 nM
"CC[C@]1(O)C[C@H]2CN(CCc3c([nH]c4ccccc34)[C@@](C(=O)OC)(c3cc4c(cc3OC)N(C=O)[C@H]3[C@@](O)(C(=O)OC)[C@H](OC(C)=O)[C@]5(CC)C=CCN6CC[C@]43[C@@H]65)C2)C1 [Vincristine, vincristine]",0.134 µg/mL,> 3.16 µg/mL,0.93 µg/mL,0.004 µg/mL,0.002 µg/mL,0.015 µg/mL,,,"inhibition of topoisomerase II, pRYG DNA relaxation [10]: neither paclitaxel nor vincristine was observed to have any inhibitory effects; inhibition of topoisomerase II, kDNA decatenation [11]: neither paclitaxel nor vincristine was observed to have any inhibitory effects"
